Read-outs that look alike come from different tables or passages of the source.

Here are results for 4 compounds from patent publication US5541183A, “Ginkgolide derivatives” (priority 1993, dated 1996).

The test system of assay [1] is PAF-induced rabbit platelet aggregation. Briefly: PAF-induced rabbit platelet aggregation. It counts as cell-based, rabbit (New Zealand white). To be noted: Oryctolagus cuniculus, read-out: IC50, inhibition of PAF-induced rabbit platelet aggregation. The protocol: Pharmacology Example 1: PAF-induced rabbit platelet aggregation
Blood was collected from the ear artery of a male New Zealand white rabbit and mixed with 3.8% sodium citrate in a 9:1 volume ratio. Platelet rich plasma (PRP) was obtained by centrifugation of the blood at 150 g for 10 min at room temperature. The number of platelets was adjusted to 3×10^8 platelets/ml with platelet poor plasma. Platelet aggregation was monitored by continuous recording of light transmission in a dual-channel aggregometer (Chrono-Log 560-VS) coupled with a two channel recorder (Chrono-Log 707). Stirred PRP was treated with various concentrations of the test compounds or vehicle (0.5% DMSO) for 2 min and then PAF(5×10^-9 M) was added to induce platelet aggregation.
Inhibition values were calculated by comparing the extent of aggregation obtained in the presence of the vehicle alone (0.5% DMSO) and in the presence of a test compound. Log concentration-response curves were generated and the IC50 values were determined by regression analysis.
Table 1 lists results from this assay for inhibition of PAF-induced rabbit platelet aggregation for illustrative examples of the compounds of this invention.

Assay [2] relates to Ag-induced bronchoconstriction. Briefly: Ag-induced bronchoconstriction in the guinea pig. It counts as in vivo, guinea pig (Hartley strain). The conditions noted are these: for ED50: Cavia porcellus, iv, 10 min, read-out: ID50, Ag-induced bronchoconstriction. The protocol:
Pharmacology Example 3: Ag-induced bronchoconstriction
All experiments utilized male guinea pigs (Hartley strain), weighing 350 to 500 g. The animal was passively sensitized with rabbit anti-chicken egg albumin (1.3 mg/kg), 17-24 hrs before ovaibumin challenge. Passively sensitized animals were anesthetized with ethyl carbamate 1.5 g/kg, i.p.). An intratracheal cannula was inserted into trachea and indwelling catheters were inserted into the right carotid artery and left jugular vein. The animals were ventilated with a small animal respirator (UGO BASILE 7025, 70 breaths/min, 1 ml/stroke/100 g). To monitor dead or not, mean arterial pressure was measured continuously with a pressure transducer (Physiological Pressure Transducer, MICRON INSTRUMENT MP-15) connected to an amplifier (COULBOURN INSTRUMENT 572-25) and recorder (COULBOURN INSTRUMENT R14-18). The rate of bronchoconstriction was measured as an increase in lung overflow with a bronchospasm transducer (UGO BASILE 7020) from a side arm off the tracheal cannula, and expressed as a percentage of maximum broncoconstriction obtained by clamping off the tracheal cannular. Test compounds or vehicle (0.5% DMSO) were administered through the cannula into the jugular vein and ovalbumin (1.0 mg/kg, i.v.) was administered 10 minutes later. Bronchoconstriction response was compared to that obtained with control group treated with vehicle. Percent inhibition was calculated for each dose. If necessary, log dose-response curves were generated and the ID50 values were determined by regression analysis.

The test system of assay [3] is bronchial eosinophilia. Briefly: aeroallergen-induced bronchial infiltration of eosinophils in the bronchoalveolar lavage fluid. The conditions noted are these: 30 mg/kg p.o., + 4h after aeroallergen challenge; for % Inhibition of bronchial eosinophilia: at 24 hours; for Eosinophils in BALF (Mean ± SEM): counted at 24 hours, vehicle 927 ± 131. The assay is classed as in vivo, guinea pig (Hartley strain). The protocol:
Pharmacology Example 4: The aeroallergen-induced bronchial infiltration of eosinophils in the bronchoalveolar lavage fluid.
Adult, male Hartley-strain guinea pigs weighing 492-735 g were sensitized by intraperitoneal injection of 10 μg ovalbumin (OA) mixed in 100-mg aluminum hydroxide. And guinea pigs were pretreated with pyrilamine (1.0 mg/kg) intraperitoneally 30 min. before aeroallergen challenge. Individual guinea pigs were placed in a two-liter glass chamber and exposed to a five aerosol of OA solution (0.5 mg/ml in saline containing 0.02% antifoal emulsion for a period of 10 min.).
4 hours after aero allergen challenge, the guinea pigs received either vehicle or compounds suspended in 1% acacia by oral garage.
24 hours after aero allergen challenge, the animals were euthanized with an i.p. overdose of pentobarbital sodium (100 mg/kg). The abdominal cavity was opened, and the animal was exsaguinated by cutting the abdominal aorta. A midline incision was made through the rib cage, exposing the heart and lungs.
The trachea was cannulated with an 18-gauge stainless steel feeding tube; 20 ml/kg of prewarmed (37° C.) physiological saline was instilled and the BALF was gently withdrawn.
BALF (amounting to 60-80% of the saline infused) was transferred to a 10 ml vacutainer containing 0.10 ml of 15% EDTA solution and centrifugated at 2400 rpm for 10 min.
The supernatant was poured off, and the cell pellet was suspended in physiological saline equal to the ratio of BALF recovered (ml) and physiological saline instilled in the lungs (ml), multiplied by two.
The eosinophils in BALF were counted by Unopette Test 5877.
The mean numbers of eosinophils±SEM in the BALF of compound-treated animals and corresponding control "vehicle"-treated animals were compared by Student's t-test. A P value of 0.05 or less was considered significant. Table 4 lists results from this assay for inhibition of bronchial eosinophilia for illustrative examples of this invention.

Assay [4] has as its system PAF induced Lethality. The assay is described as follows: PAF induced Lethality in Mice. To be noted: 10 mg/kg intraperitoneally, 2 minutes before PAF 10 μg/kg I.V.; alive after 2 hours; control 0. It counts as in vivo. The protocol:
Pharmacology Example 5: PAF induced Lethality in Mice
PAF given I.V. (10 μg/kg) to mice causes an immediate hypotensive shock leading to death in 1 hour or less. Compounds were given intraperitoneally (dose of compounds : 10 mg/kg) at 2 minutes before the PAF challenge. Animals alive after 2 hours were counted and the activity of test compounds expressed as % survival corrected for any control (saline treated) animals which survived the PAF challenge.

The test system of assay [5] is PAF-induced bronchoconstriction. Briefly: PAF-induced bronchoconstriction in the guinea pig. The assay is classed as in vivo, guinea pig (Hartley strain). The conditions noted are these: for ED50: Cavia porcellus, iv, read-out: ID50, PAF-induced bronchoconstriction. The protocol:
Pharmacology Example 2: PAF-induced bronchoconstriction
All experiments utilized male guinea pigs (Hartley strain), weighing 350 to 450 g, that were anesthetized with ethyl carbamate (1.5 g/kg, i.p.). An intratracheal cannula was inserted into trachea and indwelling catheters were inserted into the right carotid artery and left jugular vein. The animals were ventilated with a small animal respirator (UGO BASILE 7025, 70 breaths/min, 1 ml/stroke/100 g). To monitor dead or not, mean arterial pressure was measured continuously with a pressure transducer (Physiological Pressure Transducer, MICRON INSTRUMENT MP-15) connected to an amplifier (COULBOURN INSTRUMENT 572-25) and recorder (COULBOURN INSTRUMENT R14-18). The rate of bronchoconstriction was measured as an increase in lung overflow with a bronchospasm transducer (UGO BASILE 7020) from a side arm off the tracheal cannula, and expressed as a percentage of maximum bronchoconstriction obtained by clamping off the tracheal cannula. Test compounds or vehicle (0.5% DMSO) were administered through the cannula into the jugular vein and PAF (100 ng/kg, i.v.) was administered. Bronchoconstriction response was compared to that obtained with control group treated with vehicle. Percent inhibition was calculated for each dose. Log dose-response curves were generated and the ID50 values were determined by regression analysis, and the results are presented in Table 2.
Table 2: Results for inhibition of PAF-induced bronchoconstriction in the guinea pig.

[6] abbreviates: 0.1 mg/kg, jugular vein, ovalbumin 1.0 mg/kg i.v. 10 minutes later.
[7] abbreviates: 0.5 mg/kg, jugular vein, ovalbumin 1.0 mg/kg i.v. 10 minutes later.
Where [8] appears, read: 1.0 mg/kg, jugular vein, ovalbumin 1.0 mg/kg i.v. 10 minutes later.
[9] abbreviates: jugular vein, ovalbumin 1.0 mg/kg i.v. 10 minutes later.

For the compound `CC1C(=O)OC2C(O)C34C5CC(C(C)(C)C)C36C(OC(=O)C6OCc3ccc6c(c3)OCO6)OC4(C(=O)O5)C12O` (stereo not shown) [Example 82, 10-piperonyloxy-Ginkgolide B], the IC50 in assay [1] stood at 50.7 nM. The “% inhibition of Ag-induced bronchoconstriction” value in assay [2] (setting [6]) turned out to be 60%; in assay [2] (setting [7]), 94%; in assay [2] (setting [8]) it was 100%. Also, the ED50 in assay [2] came to 0.09 mg/kg. Moreover, the “% Inhibition of bronchial eosinophilia” value in assay [3] turned out to be 34%. For the same compound, the “Eosinophils in BALF (Mean ± SEM)” value in assay [3] was 616 ± 145 10^3 cells/m1 BALF. In addition, the “Survival rate (%)” value in assay [4] is on record as 100%.

`Cc1cnc(COC2C(=O)OC3OC45C(=O)OC6CC(C(C)(C)C)C32C64C(O)C2OC(=O)C(C)C25O)c(C)c1` (stereo not shown) [Example 96, 10-(3,5-dimethyl-2-pyridinyl) -methoxy-Ginkgolide]: the half-maximal inhibitory concentration (IC50) in assay [1] (rabbit PRP, PAF 5×10^-9 M) was 24.5 nM. Besides, the “% inhibition of PAF-induced bronchoconstriction” value in assay [5] (0.01 mg/kg, jugular vein, PAF 100 ng/kg i.v.) amounted to 17%; in assay [5] (0.02 mg/kg, jugular vein, PAF 100 ng/kg i.v.) it was 26%; in assay [5] (0.04 mg/kg, jugular vein, PAF 100 ng/kg i.v.) it was 96%. In addition, the ED50 in assay [5] (jugular vein, PAF 100 ng/kg i.v.) was 0.023 mg/kg; in assay [2] (setting [9]) it was 0.1 mg/kg. Also, the “% inhibition of Ag-induced bronchoconstriction” value in assay [2] (setting [6]) came to 50%; in assay [2] (setting [7]), 97%; in assay [2] (setting [8]), 100%. Moreover, the “% Inhibition of bronchial eosinophilia” value in assay [3] worked out at 31%. Besides, in assay [3], the “Eosinophils in BALF (Mean ± SEM)” value is on record as 641 ± 134 10^3 cells/m1 BALF. In assay [4], the “Survival rate (%)” value is given as 100%.

For `CC1C(=O)OC2C(O)C34C5CC(C(C)(C)C)C36C(OC(=O)C6OCc3ccc(O)cn3)OC4(C(=O)O5)C12O` (stereo not shown) [Example 115, 10-(2-(5-hydroxypyridinyl)-methoxy)-Ginkgolide B], the IC50 in assay [1] (rabbit PRP, PAF 5×10^-9 M) was determined as 152 nM. For the same compound, the “% inhibition of Ag-induced bronchoconstriction” value in assay [2] (setting [6]) worked out at 65%; in assay [2] (setting [7]), 100%; in assay [2] (setting [8]) it was 100%. Also, in assay [2] (setting [9]), the ED50 was determined as 0.08 mg/kg. The “Survival rate (%)” value in assay [4] stood at 100%.

`CC1C(=O)OC2C(O)C34C5CC(C(C)(C)C)C36C(OC(=O)C6O)OC4(C(=O)O5)C12O` (stereo not shown) [Ginkgolide B, reference compound]: the IC50 in assay [1] (rabbit PRP, PAF 5×10^-9 M) came to 258 nM. The “% inhibition of PAF-induced bronchoconstriction” value is 38% in assay [5] (0.50 mg/kg, jugular vein, PAF 100 ng/kg i.v.); 64% in assay [5] (1.00 mg/kg, jugular vein, PAF 100 ng/kg i.v.); 100% in assay [5] (2.00 mg/kg, jugular vein, PAF 100 ng/kg i.v.). For the same compound, the ED50 in assay [5] came to 0.6 mg/kg; in assay [2] (setting [9]) it was 0.83 mg/kg. Further, the “% inhibition of Ag-induced bronchoconstriction” value in assay [2] (setting [6]) was found to be 10%; in assay [2] (setting [7]), 42%; in assay [2] (setting [8]), 82%. The “% Inhibition of bronchial eosinophilia” value in assay [3] was 0%. For the same compound, the “Eosinophils in BALF (Mean ± SEM)” value in assay [3] is on record as 1148 ± 305 10^3 cells/m1 BALF.

One may read the IC50 as the concentration that inhibits the measured activity by half.
